In PMC9873282, “Design, synthesis and evaluation of quinoline-O-carbamate derivatives as multifunctional agents for the treatment of Alzheimer’s disease” (Journal of Enzyme Inhibition and Medicinal Chemistry, 2023):
Values joined by “and” are separate entries in the source; they are usually repeats but may differ in a detail not shown here. Identical values can stand only once. Like-named read-outs stand apart in the source and are kept apart here.

Legend:
eqBuChE = target: T1, eqBuChE (Equus caballus, UniProt P81908); test: biochemical; parameters: species or system equine; conditions: for IC50: BuChE from equine serum; for SI = IC50 (AChE)/IC50 (BuChE): eeAChE/eqBuChE; for inhibition at 25 µM: read-out: eqBuChE inhibition rate
T1 construct: eqBuChE, from equine serum; purchased Sigma Aldrich; host or cells: equine serum (natural source)
T1 sequence (P81908 whole entry): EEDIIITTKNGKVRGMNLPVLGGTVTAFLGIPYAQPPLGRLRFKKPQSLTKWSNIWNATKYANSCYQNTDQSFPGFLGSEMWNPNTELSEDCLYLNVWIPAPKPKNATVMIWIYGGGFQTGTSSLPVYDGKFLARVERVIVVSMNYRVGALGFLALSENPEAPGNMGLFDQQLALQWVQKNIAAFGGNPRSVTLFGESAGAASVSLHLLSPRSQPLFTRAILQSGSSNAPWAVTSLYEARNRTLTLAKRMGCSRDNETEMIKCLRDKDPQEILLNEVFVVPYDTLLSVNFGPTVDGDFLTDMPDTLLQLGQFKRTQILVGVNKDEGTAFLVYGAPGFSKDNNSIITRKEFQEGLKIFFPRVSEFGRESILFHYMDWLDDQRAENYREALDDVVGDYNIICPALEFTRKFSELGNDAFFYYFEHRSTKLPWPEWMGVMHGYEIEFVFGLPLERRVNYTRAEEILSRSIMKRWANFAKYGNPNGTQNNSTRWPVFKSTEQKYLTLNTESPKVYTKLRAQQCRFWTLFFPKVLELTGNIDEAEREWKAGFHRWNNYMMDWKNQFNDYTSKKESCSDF
Protocol: (§1) The inhibitory activities of the synthesised compounds against eeAChE (from electric eel) and eqBuChE (from equine serum) were tested by the modified Ellman’s method[26]^,[27]. […] The determination of AChE and BuChE inhibitory potency of the synthesised compounds were evaluated by Ellman assay, the detailed procedure referred to our previous work[26]^,[27].

[1] = tested on: Aβ25-35-induced PC12 cells injury; test: Neuroprotective effect on Aβ25-35-induced PC12 cells injury (CCK-8); assay type: cell-based; conditions: 25 µM Aβ25-35; model cell viability 57.3%
Protocol: (§2) The neuroprotective effect of compounds 3a, 3c, 3e, 3f, 3k, 3m, and 3n on Aβ25–35-induced PC12 cells injury were evaluated using CCK-8 assay. […] Furthermore, as shown in Figure 12(B), when PC12 cells were exposed to 25 µM Aβ25-35, the cell viability sharply declined to 57.3% (p < 0.01) compared with untreated group.
• Preparation of Aβ25-35 aggregation. Aβ25-35 was purchased from sigma. 1 mg Aβ25-35 was dissolved in 943 µL of sterilised deionised water to obtain 1 mM stock solution, aliquoted, –20 °C preservation. Removing the appropriate volume in a 48-well plate and incubated in a 37 °C incubator for two days to allow its ageing to accumulate and produce neurotoxicity. After aggregation was completed, the solution was diluted with PBS to get 25 µM solution of Aβ25-35 aggregation. • Neuroprotective effects of compounds on Aβ25-35-induced PC12 cells injury
(§3) The PC12 cells during the logarithmic growth phase were digested and centrifuged with pancreatic enzyme solution, the cells were resuspended by adding the prepared media solution, and piped evenly with a pipette to seed in a 96-well cell culture plate (cell concentration adjusted to 2.0 × 10^4 cell·mL^−1). Each well was added 100 µL complete medium was added to each well and incubated at 37 °C and 5% CO2 for 24 h.
After incubation for 24 h, PC12 cells were divided into blank group, control group, Aβ25-35 model group and tested compounds group (5, 10, 20 µM). Then the original medium was discarded, and 100 µL new complete medium were added to PC12 cells, and the tested compounds group was added to 100 µL complete medium containing different concentrations (5, 10, and 20 µM) of tested compounds, incubated for 2 h at 37 °C, 5% CO2 conditions. After incubation for 2 h, 10 µL Aβ25-35 solution was added to the tested compounds groups and model group (the final concentration of Aβ25-35 was 25 µM), and incubated for 24 h at 37 °C, 5% CO2 conditions, 10 µL CCK-8 was added to each well and further incubated for 1 h at 37 °C and 5% CO2. Finally, the OD value was measured at 450 nm using a microplate reader, and each concentration set three wells. The cell survival rate (%) was determined according to the following formula: cell viability (%) = {(ODdrug−ODblank)}/{(ODcontrol−ODblank)}.

IL-6 = IL-6 production in LPS-stimulated BV-2 cells (ELISA); assay type: cell-based; conditions: 1 µM and 2 µM; 1 µg/mL LPS 24 h
Protocol: (§4) Firstly, the cytotoxicity of compounds 3a, 3c, 3e, 3f, 3k, 3m and 3n were tested using CCK8 assay.
(§5) BV-2 cells (2 × 10^5 cells/well) were seeded in a 24-well cell culture plates. The cells were divided into blank control group, model group (1 µg/mL LPS), LPS + 2 µM compound group, LPS + 1 µM compound group. Each drug group was pre-treated with corresponding concentration of drug solution for 8 h. After 8 h, the culture medium was aspirated out. Except for the blank control group, which was added with DMEM medium, the other groups were stimulated with 1 µg/mL LPS for 24 h. Then cell supernatant was aspirated and centrifuged at 3000 rpm for 3 min. The content of NO in cell culture supernatant was determined by Griess method, and the levels of cytokines IL-6 and IL-1β in cell culture supernatant were determined by IL-6 ELISA kit and IL-1β ELISA kit, respectively.

IL-1β = IL-1β production in LPS-stimulated BV-2 cells (ELISA); assay type: cell-based; conditions: 1 µg/mL LPS 24 h
Protocol: as §4, §5

BV-2 cells = test: Cytotoxicity on BV-2 cells (CCK8 assay); assay type: cell-based; conditions: compounds at 2 µM
Protocol: as §4
BV-2 cells were cultured in DMEM containing 10% foetal bovine serum, 100 U/mL penicillin, 100 U/mL streptomycin, and 1% nonessential amino acid at 37 °C with 5% CO2.
BV-2 cells in logarithmic growth stage were digested and centrifuged, and then resuspended in DMEM medium containing 1% penicillin-streptomycin and 10% foetal bovine serum. The cells was adjusted to 1.2 × 10^4 cells/well, and then seeded evenly in 96-well cell culture plates. The cells were incubated for 36 h at 37 °C with 5% CO2. After incubation, the cells were added to different concentrations (10 and 2 µM) of tested compounds, and incubated for 24 h at 37 °C with 5% CO2. Then, 10 µL CCK-8 solution was added to each well, and incubated for another 1 h at 37 °C with 5% CO2. The OD values were tested at […]. The cell viability (%) = {(ODdrug−ODblank)}/{(ODcontrol−ODblank)} × 100%.

NO = NO release in LPS-stimulated BV-2 cells (Griess method); assay type: cell-based; conditions: 1 µg/mL LPS 24 h
Protocol: as §4, §5

eeAChE = target: T2, eeAChE (Electrophorus electricus, UniProt O42275); test: biochemical; parameters: species or system electric eel
T2 construct: eeAChE, from the electric eel; purchased Sigma Aldrich; host or cells: electric eel (natural source)
T2 sequence (O42275 24-633): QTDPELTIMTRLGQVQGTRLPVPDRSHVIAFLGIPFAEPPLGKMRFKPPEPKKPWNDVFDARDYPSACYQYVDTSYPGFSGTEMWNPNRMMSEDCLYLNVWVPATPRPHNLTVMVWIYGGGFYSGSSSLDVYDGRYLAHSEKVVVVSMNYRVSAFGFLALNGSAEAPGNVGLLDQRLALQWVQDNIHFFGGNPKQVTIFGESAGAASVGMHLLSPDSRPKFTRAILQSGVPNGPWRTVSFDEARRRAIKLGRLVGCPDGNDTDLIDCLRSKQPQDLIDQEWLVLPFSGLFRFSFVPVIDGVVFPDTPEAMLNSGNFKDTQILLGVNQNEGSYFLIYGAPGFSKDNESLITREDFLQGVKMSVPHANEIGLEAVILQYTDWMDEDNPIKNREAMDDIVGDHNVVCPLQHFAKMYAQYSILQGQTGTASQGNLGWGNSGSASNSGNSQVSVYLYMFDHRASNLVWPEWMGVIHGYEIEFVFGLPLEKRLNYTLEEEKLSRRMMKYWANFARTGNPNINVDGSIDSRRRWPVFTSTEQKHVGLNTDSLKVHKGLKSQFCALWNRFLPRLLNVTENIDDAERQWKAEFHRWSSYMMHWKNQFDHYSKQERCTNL
Protocol: as §1

PC12 cells = test: Cytotoxicity on PC12 cells; assay type: cell-based; conditions: at concentration below 40 µM
Protocol: as §2, §3

ACh = ACh level in AlCl3-induced zebrafish AD model tissue; assay type: in vivo; conditions: 8 µM; model 7.3, untreated 13.9 pmol/L
Text: . After the behavioural experiments, the 168hpf zebrafish were killed and ground, the tissue were used to test the AChE activity and ACh levels. […] .

hBuChE = target: T3, hBuChE (Homo sapiens, UniProt P06276); test: hBuChE reversibility of inhibition (recovery after dilution); assay type: biochemical
T3 construct: hBuChE, human serum BuChE; purchased Sigma Aldrich; host or cells: human serum (natural source)
T3 sequence (P06276 29-602): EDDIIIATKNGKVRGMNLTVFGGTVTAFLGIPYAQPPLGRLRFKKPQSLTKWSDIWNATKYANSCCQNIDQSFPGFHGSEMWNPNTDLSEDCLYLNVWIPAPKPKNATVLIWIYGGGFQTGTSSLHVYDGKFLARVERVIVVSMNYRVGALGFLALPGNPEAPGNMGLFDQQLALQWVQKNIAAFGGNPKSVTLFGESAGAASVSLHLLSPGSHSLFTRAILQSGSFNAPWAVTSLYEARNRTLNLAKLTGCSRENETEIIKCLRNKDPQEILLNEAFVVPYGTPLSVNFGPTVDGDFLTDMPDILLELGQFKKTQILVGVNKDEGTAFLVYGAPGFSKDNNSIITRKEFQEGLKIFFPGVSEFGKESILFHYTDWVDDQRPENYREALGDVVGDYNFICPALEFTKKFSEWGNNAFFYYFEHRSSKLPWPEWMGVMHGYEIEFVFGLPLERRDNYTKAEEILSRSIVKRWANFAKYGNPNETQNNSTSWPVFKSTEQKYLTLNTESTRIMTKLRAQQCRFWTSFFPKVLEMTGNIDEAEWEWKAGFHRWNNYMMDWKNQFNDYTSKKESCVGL

[2] = AChE from electric eel, read-out: IC50 ± SD eeAChE

| Structure (SMILES) | neuroprotective effect on Aβ25-35-induced PC12 cells injury [1] | levels of IL-6 compared with model group (IL-6) | levels of IL-1β compared with model group (IL-1β) | cell viability of BV-2 cells (BV-2 cells) | release volume of NO (NO) | IC50 (eeAChE) [µM] | cytotoxicity on PC12 cells (PC12 cells) | IC50 (eeAChE; [2]) [µM] | inhibition at 25 µM (eqBuChE; at 25 μM of compounds) [%] | also measured |
| --- | --- | --- | --- | --- | --- | --- | --- | --- | --- | --- |
| CN(C)C(=O)Oc1ccnc2ccccc12 [Compound 3a, Quinolin-4-yl dimethylcarbamate] | did not show significant neuroprotective effects | significantly decreased | did not obviously decrease | did not show obvious change | significantly decreased | 10.8 ± 0.33 | did not show any cytotoxicity | – | – | IC50 (eqBuChE; IC50 ± SD eqBuChE): 2.83 µM and 2.8 µM; SI = IC50 (AChE)/IC50 (BuChE) (eqBuChE): 3.8 |
| CCN(C)C(=O)Oc1ccnc2ccccc12 [Compound 3c, Quinolin-4-yl ethyl(methyl)carbamate] | did not show significant neuroprotective effects | significantly decreased | did not obviously decrease | did not show obvious change | significantly decreased | 13.2 ± 0.51 | did not show any cytotoxicity | – | – | IC50 (eqBuChE; IC50 ± SD eqBuChE): 1.92 µM and 1.9 µM; SI = IC50 (AChE)/IC50 (BuChE) (eqBuChE): 6.9 |
| CCN(C)C(=O)Oc1cccc2ncccc12 [Compound 3g, Quinolin-5-yl ethyl(methyl)carbamate] | – | – | – | – | – | 3.2 ± 0.05 | – | – | – | IC50 (eqBuChE; IC50 ± SD eqBuChE): 2.23 µM and 2.2 µM; SI = IC50 (AChE)/IC50 (BuChE) (eqBuChE): 1.4 |
| O=C(Oc1cccc2ncccc12)N1CCOCC1 [Compound 3h, Quinolin-5-yl morpholine-4-carboxylate] | – | – | – | – | – | – | – | 12.9 ± 0.07 | – | IC50 (eqBuChE; read-out: IC50 ± SD eqBuChE): 1.76 µM and 1.8 µM; SI = IC50 (AChE)/IC50 (BuChE) (eqBuChE): 7.2 |
| CN(C)C(=O)Oc1ccc2ncccc2c1 [Compound 3i, Quinolin-6-yl dimethylcarbamate] | – | – | – | – | – | 14.1 ± 0.43 | – | – | – | inhibition at 25 µM (eqBuChE): 13.8 ± 0.61% |
| CCN(CC)C(=O)Oc1ccc2ncccc2c1 [Compound 3j, Quinolin-6-yl diethylcarbamate] | – | – | – | – | – | – | – | 12.2 ± 0.19 | 30.7 ± 1.26 | – |
| CCN(C)C(=O)Oc1ccc2ncccc2c1 [Compound 3k, Quinolin-6-yl ethyl(methyl)carbamate] | significant neuroprotective effects at 10 µM | significantly decreased | significantly decreased | did not show obvious change | significantly decreased | 10.3 ± 0.58 | did not show any cytotoxicity | – | – | inhibition at 25 µM (eqBuChE): 5.8 ± 0.03% |
| O=C(Oc1ccc2ncccc2c1)N1CCOCC1 [Compound 3l, Quinolin-6-yl morpholine-4-carboxylate] | – | – | – | – | – | – | – | 17.6 ± 0.61 | 13.8 ± 0.61 | – |
| CN(C)C(=O)Oc1cccc2cccnc12 [Compound 3m, Quinolin-8-yl dimethylcarbamate] | significant neuroprotective effects at 5 and 10 µM | significantly decreased | did not obviously decrease | did not show obvious change | significantly decreased | 6.5 ± 0.05 | did not show any cytotoxicity | – | – | inhibition at 25 µM (eqBuChE): 7.3 ± 0.05% |
| CCN(CC)C(=O)Oc1cccc2cccnc12 [Compound 3n, Quinolin-8-yl diethylcarbamate] | significant neuroprotective effects at 5 and 10 µM | significantly decreased | did not obviously decrease | did not show obvious change | significantly decreased | – | did not show any cytotoxicity | 9.7 ± 0.07 | 2.4 ± 0.01 | – |
| CCN(C)C(=O)Oc1cccc2cccnc12 [Compound 3o, Quinolin-8-yl ethyl(methyl)carbamate] | – | – | – | – | – | 8.2 ± 0.06 | – | – | – | inhibition at 25 µM (eqBuChE): 4.1 ± 0.02% |
| O=C(Oc1cccc2cccnc12)N1CCOCC1 [Compound 3p, Quinolin-8-yl morpholine-4-carboxylate] | – | – | – | – | – | – | – | 12.6 ± 0.76 | 10.8 ± 0.07 | – |
| CC(C)N(C(=O)Oc1cccc2cccnc12)C(C)C [Compound 3q, Quinolin-8-yl diisopropylcarbamate] | – | – | – | – | – | – | – | 14.8 ± 0.68 | 1.7 ± 0.01 | – |
| COc1cc2c(cc1OC)C(=O)C(CC1CCN(Cc3ccccc3)CC1)C2 (stereo not drawn) [Donepezil, reference compound] | – | – | – | – | – | – | – | – | – | ACh activity (level) (ACh): 14.0 pmol/L |
| CCN(C)C(=O)Oc1cccc([C@H](C)N(C)C)c1 [Rivastigmine, reference compound] | – | – | – | – | – | – | – | – | – | hBuChE activity (% control) (hBuChE; 0.1*IC50, diluted): 46.9 % control; hBuChE activity restored (hBuChE; 0.1 × IC50, 120 min): 62.3%; hBuChE activity restored (hBuChE; 0.1 × IC50, 240 min): 121.8%; hBuChE activity (% control) (hBuChE; 1*IC50, diluted): 52.3 % control; hBuChE activity (% control) (hBuChE; 1*IC50, undiluted): 51.4 % control |
